Source: US20200288710A1, “SUBSTITUTED SULPHONAMIDES FOR CONTROLLING ANIMAL PESTS” (BAYER CROPSCIENCE AKTIENGESELLSCHAFT, priority 2016, published 2020)

How the values were obtained:
Assay type in all cases: in vivo
Lucilia cuprina = Lucilia cuprina test; conditions: 48 h, L1 larvae, after 2 days, read-out: efficacy (kill in %)
Method: Lucilia cuprina Test Solvent: dimethyl sulphoxide To produce a suitable preparation of active compound, 10 mg of active compound are mixed with 0.5 ml of dimethyl sulphoxide, and the concentrate is diluted with water to the desired concentration. About 20 L1 larvae of the Australian sheep blowfly (Lucilia cuprina) are transferred into a test vessel containing minced horsemeat and the active compound preparation of the desired concentration. After 2 days, the kill in % is determined. 100% means that all the larvae have been killed; 0% means that no larvae have been killed.

Myzus persicae [1] = test: Myzus persicae spray test (Chinese cabbage leaf discs); conditions: foliar, 120 h, 500 g/ha, after 5-6 days, read-out: efficacy
Method in brief: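 Formulated compound in acetone/dimethylformamide, diluted in water with 1000 ppm emulsifier, was sprayed onto Brassica pekinensis leaf discs carrying mixed-stage Myzus persicae. Percent mortality was read 5-6 days later (0% = no aphids killed, 100% = all killed).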

Phaedon cochleariae = Phaedon cochleariae spray test; conditions: foliar, 168 h, Chinese cabbage leaf discs, larvae, after 7 days, read-out: efficacy
Method in brief: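 Mortality of beetle larvae scored at day 7, expressed as % (0% none killed, 100% all). Formulation: compound in solvent, made up and further diluted with emulsifier-containing water (1000 ppm emulsifier).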

Myzus persicae [2] = test: Myzus persicae oral test; conditions: 120 h, 20 ppm, oral uptake, after 5 days, read-out: efficacy
Method in brief: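 Aphids of mixed ages imbibe, through parafilm, compound solution (acetone stock, water-diluted) combined with sugar-supplemented IPL41 medium to 200 μl. Efficacy read at day 5 as percent killed, 0% meaning no deaths.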

Meloidogyne incognita = Meloidogyne incognita test; conditions: 336 h, lettuce, after 14 days, read-out: nematicidal efficacy (formation of galls)
Method in brief: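 Gall formation on lettuce roots scored after 14 days: 0% means gall count equals untreated control, 100% means none. Sand vessels held the compound (acetone concentrate diluted in water), southern root-knot nematode egg/larvae suspension and lettuce seeds.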

Tetranychus urticae = Tetranychus urticae spray test, OP-resistant; conditions: foliar, 144 h, bean leaf discs, after 6 days, read-out: efficacy
Method: Tetranychus urticae—Spray Test, OP-Resistant
To produce a suitable preparation of active compound, 1 part by weight of active compound is dissolved using the specified parts by weight of solvent and made up with water containing an emulsifier concentration of 1000 ppm until the desired concentration is attained. To produce further test concentrations, the formulation is diluted with emulsifier-containing water.
Discs of bean leaves (Phaseolus vulgaris) infested with all stages of the greenhouse red spider mite (Tetranychus urticae) are sprayed with an active compound preparation of the desired concentration.
After 6 days, the efficacy in % is determined. 100% means that all the spider mites have been killed; 0% means that no spider mites have been killed.

SMILES	pest or weed control at 100 ppm (Lucilia cuprina) [%]	pest or weed control at 500 g/ha (Myzus persicae [1]) [%]	pest or weed control at 500 g/ha (Phaedon cochleariae) [%]	pest or weed control at 20 ppm (Myzus persicae [2]) [%]	pest or weed control at 20 ppm (Meloidogyne incognita) [%]	pest or weed control at 500 g/ha (Tetranychus urticae) [%]
CCc1ccccc1S(=O)(=O)NC(=O)c1cn(C)c(-c2ncccc2F)n1 [Example 572]	100	100	83	100	–	–
COc1cc(S(=O)(=O)NC(=O)c2cn(C)c(-c3c(F)cccc3F)n2)c(C)cc1Br [Example 285]	100	90	100	100	100	–
Cc1cccc(Cl)c1S(=O)(=O)NC(=O)c1cn(C)c(-c2c(F)cccc2F)n1 [Example 364]	100	100	100	100	100	–
Cn1nc(-c2c(F)cccc2F)nc1C(=O)NS(=O)(=O)c1ccccc1Cl [Example 407]	–	–	–	–	90	90
Cn1cc(C(=O)NS(=O)(=O)c2ccccc2Br)nc1-c1ccccc1Cl [Example 36]	100	100	100	100	100	–
COc1ccc(Cl)c(S(=O)(=O)NC(=O)c2cn(C)c(-c3c(F)cccc3F)n2)c1 [Example 92]	95	100	–	100	–	–
Cn1cc(C(=O)NS(=O)(=O)c2ccccc2I)nc1-c1c(F)cccc1F [Example 120]	100	100	100	100	90	–
Cc1ccccc1S(=O)(=O)NC(=O)c1cn(C)c(-c2c(Cl)cccc2Cl)n1 [Example 25]	100	100	–	100	–	–
CCS(=O)(=O)NC(=O)c1nc(-c2ccccc2Cl)n(C)c1C [Example 70]	–	90	–	100	–	90
Cc1ccc(Cl)cc1S(=O)(=O)NC(=O)c1cn(C)c(-c2ccccc2Cl)n1 [Example 37]	100	90	100	100	100	–
Cc1ccc(F)cc1S(=O)(=O)NC(=O)c1cn(C)c(-c2ncccc2Cl)n1 [Example 584]	100	100	100	100	90	–
Cn1cc(C(=O)NS(=O)(=O)c2cc(Cl)ccc2Cl)nc1-c1ccccc1Cl [Example 56]	100	100	100	100	90	–
Cn1cc(C(=O)NS(=O)(=O)c2c(Cl)cccc2Cl)nc1-c1c(Cl)cccc1Cl [Example 102]	100	100	100	100	90	–
Cc1ccccc1S(=O)(=O)NC(=O)c1cn(C)c(-c2cccc(Cl)c2Cl)n1 [Example 519]	100	90	100	100	100	–
CCc1cccc(C)c1S(=O)(=O)NC(=O)c1cn(C)c(-c2c(F)cccc2F)n1 [Example 336]	95	90	100	100	100	–
O=C(NS(=O)(=O)CC(F)(F)F)c1cn(-c2ccccc2)c(-c2ccccc2Cl)n1 [Example 74]	–	–	–	–	–	100
Cc1ccc(F)cc1S(=O)(=O)NC(=O)c1cn(C)c(-c2c(F)cccc2F)n1 [Example 397]	100	100	100	100	90	–
